In patent US20250082598A1, “Melafenoxate, 2-(1-adamantylamino)ethyl 2-(4-chlorophenoxy)acetate and derivatives thereof for treating circadian rhythm sleep disorders with neurodegenerative diseases such as Alzheimer's disease” (NLS Pharmaceutics AG, priority 2021, published 2025):

Columns and labels:
RXFP4 (h) = RXFP4 (h) (Homo sapiens, UniProt Q8TDU9); assay: RXFP4 assay (Eurofins/LeadHunter, cAMP Hunter GPCR Biosensor); assay type: cell-based
Method: Melafenoxate is found to weakly bind with RXFP3 and RXFP4 receptors (Study FR095-0024749-Q Eurofins/leadHunter Jun. 25, 2021; unpublished data).
In these assays' compounds were tested in agonist and antagonist mode with the GPCR Biosensor Assays and match to this design:
• 1. CAMP Hunter cell lines were expanded from freezer stocks according to standard procedures. • 2. Cells were seeded in a total volume of 20 μL into white walled, 384-well microplates and incubated at 37° C. for the appropriate time prior to testing. • 3. cAMP modulation was determined using the DiscoverX HitHunter CAMP XS+assay.
• 1. For agonist determination, cells were incubated with sample to induce response. • 2. Media was aspirated from cells and replaced with 15 μL 2:1 HBSS/10 mM Hepes: CAMP XS+ Ab reagent. • 3. […]
• 1. […] Microplates were read following signal generation with a PerkinElmer Envision™ instrument for chemiluminescent signal detection.
• 1. Compound activity was analyzed using CBIS data analysis suite (ChemInnovation, CA). • 2. For Gs agonist mode assays, percentage activity is calculated using the following formula:
% Activity=100%×(mean RLU of test sample−mean RLU of vehicle control)/(mean RLU of MAX control−mean RLU of vehicle control). • 3. For Gs positive allosteric mode assays, percentage modulation is calculated using the following formula: http://www.eurofinsdiscoveryservices.com Confidential Jun. […]

MT1 (MLT1a) (h) = molecular target: T1, MT1 (MLT1a) (h) (Homo sapiens, UniProt P48039); assay: Radioligand binding, MT1 (MLT1a) (h); settings: 10^−5 M; agonist radioligand; % inhibition of control specific binding
T1 construct: CEREP (Eurofins, France)
Method: (§1) Melafenoxate was tested at 10^−5 M, calculated as a % inhibition of control specific binding of a radioactively labeled ligand specific for each target.
(§2) This binding profile panel was broadly defined with roughly an equal number of selective, central and peripheral therapeutically relevant targets, including native animal tissues, radioligands and specific enzymes involved in cell cycle regulation in accordance with Eurofins Standard Operating Procedure.
(§3) For radioligand binding experiments, the half maximal inhibitory concentration (IC50) and the half maximal effective concentration (EC50) values were determined (via computer software) by nonlinear regression analysis of the competition curves using Hill equation curve fitting. The inhibition constants (Ki) were calculated using the Cheng-Prusoff equation (Ki=IC50/(1+(L/KD)), where L is the concentration of radioligand in the assay, and KD is the affinity of the radioligand for the receptor.^49
(§4) The results are expressed as a % control specific binding ([measured specific binding/control specific binding]×100) and as a % inhibition of control specific binding (100−[(measured specific binding/control specific binding)×100]) obtained in the presence of the test compounds. […]

5-HT7 (h) = molecular target: T2, 5-HT7 (h) (Homo sapiens, UniProt P34969); assay: Radioligand binding, 5-HT7 (h); settings: 10^−5 M; agonist radioligand
T2 construct: CEREP (Eurofins, France)
Method: as §1, §2, §3, §4

Sequence of RXFP4 (h) (Q8TDU9 whole entry): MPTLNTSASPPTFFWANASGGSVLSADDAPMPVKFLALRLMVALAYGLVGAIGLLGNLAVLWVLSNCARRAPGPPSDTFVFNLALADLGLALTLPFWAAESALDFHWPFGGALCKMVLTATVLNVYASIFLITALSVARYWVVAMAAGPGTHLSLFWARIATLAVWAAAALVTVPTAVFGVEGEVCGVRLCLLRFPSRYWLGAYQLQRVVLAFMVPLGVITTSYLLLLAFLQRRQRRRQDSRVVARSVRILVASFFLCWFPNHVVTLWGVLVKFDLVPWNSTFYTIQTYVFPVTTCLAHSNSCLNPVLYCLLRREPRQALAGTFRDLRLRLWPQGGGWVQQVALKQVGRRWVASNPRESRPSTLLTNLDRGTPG
T2 sequence (P34969 whole entry): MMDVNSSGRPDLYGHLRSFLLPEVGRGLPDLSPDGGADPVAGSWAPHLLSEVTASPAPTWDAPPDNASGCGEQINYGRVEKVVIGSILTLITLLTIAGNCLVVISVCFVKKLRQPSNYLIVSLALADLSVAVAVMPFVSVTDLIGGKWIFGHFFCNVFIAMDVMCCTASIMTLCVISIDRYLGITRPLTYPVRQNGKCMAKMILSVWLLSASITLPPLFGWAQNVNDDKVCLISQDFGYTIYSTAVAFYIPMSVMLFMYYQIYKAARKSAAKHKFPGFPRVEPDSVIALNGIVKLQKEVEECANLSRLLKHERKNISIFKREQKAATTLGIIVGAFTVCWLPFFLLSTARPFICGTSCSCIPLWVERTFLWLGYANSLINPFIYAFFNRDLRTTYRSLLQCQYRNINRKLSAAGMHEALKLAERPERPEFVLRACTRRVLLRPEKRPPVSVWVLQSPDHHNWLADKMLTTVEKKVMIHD
T1 sequence (P48039 whole entry): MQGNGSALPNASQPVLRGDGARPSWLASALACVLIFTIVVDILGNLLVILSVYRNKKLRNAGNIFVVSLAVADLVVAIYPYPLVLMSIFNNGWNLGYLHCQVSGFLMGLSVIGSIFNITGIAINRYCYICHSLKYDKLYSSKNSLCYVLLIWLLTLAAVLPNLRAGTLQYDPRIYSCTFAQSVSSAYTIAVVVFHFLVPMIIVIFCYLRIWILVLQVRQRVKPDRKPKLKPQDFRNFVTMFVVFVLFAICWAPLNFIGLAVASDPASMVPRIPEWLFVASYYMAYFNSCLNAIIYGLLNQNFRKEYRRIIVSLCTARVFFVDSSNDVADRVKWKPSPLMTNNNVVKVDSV

`O=C(COc1ccc(Cl)cc1)OCCNC12CC3CC(CC(C3)C1)C2` [Melafenoxate, 2-(1-adamantylamino)ethyl 2-(4-chlorophenoxy)acetate] was tested, and the “binding with RXFP4 receptor (in words)” value (RXFP4 (h)) was “weakly bind”, the “% Inhibition at 5*10^−5 M” value (RXFP4 (h); 5*10^−5 M) was 19.5% and the inhibition at 10 µM (MT1 (MLT1a) (h)) was 75.2%. For the same molecule, the inhibition at 10 µM (5-HT7 (h)) was 12.8%.
